Here are results for 27 compounds from PubChem BioAssay (NCI).

“And” between values parts separate entries of the source, which are not always exact repeats. Equal values may be shown once.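 Compound exposure: 48 hours, 5 concentrations, 96-well plates. Abbreviation: GI50, concentration required for 50% inhibition of growth. TGI marks complete inhibition of growth.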

The test system of this experiment is MDA-MB-468 breast. Put plainly: inhibition of tumour cell growth, NCI panel, 48 h.
As to `COc1ccc(C2CC(c3cccc(Nc4ccnc5cc(Cl)ccc45)c3)=NN2c2ccccc2)cc1` (centres undefined), the GI50 was 2130 nM and the TGI is 34300 nM.
For `COc1ccc(/C(C#N)=C/c2nc3c(N4CCOCC4)nc(Cl)nc3n2C)cc1OC`, the GI50 is 20.4 nM and the TGI was found to be 1340 nM.
Turning to `O=c1cc(N2CCOCC2)oc2c(-c3ccccc3)cccc12`, the GI50 was 2850 nM and the TGI amounted to 18000 nM.
`O=C1/C(=C/c2ccc(F)cc2)CN(Cc2cn(CCNc3ccnc4cc(Cl)ccc34)nn2)C/C1=C\c1ccc(F)cc1`: the GI50 was 1390 nM and the TGI is 3130 nM.
In the case of `C=CC[n+]1c(/C=C2\Sc3ccccc3N2C)sc(-c2ccccc2)c1-c1ccccc1`, the GI50 was 251 nM and the TGI came out at 911 nM.
Take `CN1CCN(c2nc(NCCNc3ccnc4cc(Cl)ccc34)c3ccccc3n2)CC1`: the GI50 was 1460 nM and the TGI stood at 4640 nM.
On to `CC(=O)c1c[nH]c2ccc(-c3ccnc(Nc4ccc(NC(=O)c5cccc(F)c5)c(CN5CCOCC5)c4)n3)cc12`, for which the GI50 was 172 nM and the TGI was 582 nM.
As for `COc1cc(C2C3=C(COC3=O)N(CCO)c3cc4c(cc32)OCCO4)cc(OC)c1O` (centres undefined), the GI50 was 1010 nM and the TGI is more than 11600 nM.
The corresponding values for `COC(=O)c1ccc2c(c1)[n+](=O)c(C(C)=O)c(C(F)(F)F)n2[O-]` are 1560 nM and 3040 nM.
Take `Nc1ncnc2c1ncn2C1OC(CO)C(O)C1O` (centres undefined): the GI50 was 2140 nM and the TGI was found to be 5410 nM.
The corresponding values for `COc1cc(C2CC(c3ccc(C)cc3)=NN2C(C)=O)ccc1Oc1ccnc2cc(Cl)ccc12` (centres undefined) are 20700 nM and more than 100000 nM.
Regarding `Oc1ccc(Br)cc1CN1CCN(Cc2ccc(Cl)cc2)CC1`, the GI50 is 5100 nM and the TGI is 55800 nM.
Consider `CCCCCCCC(=O)SCC/C=C/[C@@H]1CC(=O)NCc2cccc(n2)CN(Cc2ccc(Cl)cc2)CC(=O)N[C@@H](C(C)C)C(=O)O1`, for which the GI50 was 13800 nM and the TGI is more than 100000 nM.
On to `CCCCCc1c(C)[nH]c(/C=C2\N=C(c3ccc[nH]3)C=C2Oc2ccc(OC)cc2)c1C`, for which the GI50 was 65.5 nM and 27.1 nM; the TGI was 2040 nM and 288 nM.
As for `COc1ccc(CNCCN2C(=O)c3ccc4c5c(ccc(c35)C2=O)C(=O)N(CCNCc2ccc(OC)cc2)C4=O)cc1`, the GI50 is 191 nM and the TGI is 482 nM.
For `CC(C)=CCNc1ncnc2c1ncn2C1OC(COP(=O)(O)O)C(O)C1O` (centres undefined), the GI50 was 2010 nM and the TGI came to 5400 nM.
As for `N#CC1=C(N)Oc2c(sc3c(F)cccc23)C1c1ccc(Cl)cc1` (centres undefined), the GI50 was 3180 nM and the TGI was found to be 12100 nM.
As to `COc1cccc(-n2cnc3c(N/N=C/c4ccncc4)ncnc32)c1`, the GI50 was 6400 nM and the TGI was more than 25000 nM.
On to `O=C(CCCCCn1c2ccccc2c2c3c(c4c5ccccc5[nH]c4c21)C(=O)N(O)C3=O)N1CCOCC1`, for which the GI50 was 2710 nM and the TGI stood at 5900 nM.
Regarding `O=C(NCCc1ccccc1)C(c1csc2ccccc12)N(C(=O)CCl)c1ccc(-c2cnco2)cc1` (centres undefined), the GI50 was 812 nM and the TGI stood at 2600 nM.
For `COc1cc(OC)cc(-c2n[nH]nc2-c2ccc3c(c2)OCO3)c1`, the GI50 is 226 nM and the TGI was 25800 nM.
As to `CCSc1sc(-c2ccc(C)cc2)nc1[P+](c1ccccc1)(c1ccccc1)c1ccccc1`, the GI50 is 219 nM and the TGI turned out to be 731 nM.
Consider `CN1CCN(c2nc(C3=C(c4c[nH]c5ccccc45)C(=O)NC3=O)c3ccccc3n2)CC1`, for which the GI50 was 13400 nM and 15000 nM; the TGI was 43600 nM and 30400 nM.
Turning to `Cc1cc(C)c2nc(Nc3nc(C)c(C)c(=O)[nH]3)nc(C)c2c1`, the GI50 was 2130 nM and the TGI stood at 5890 nM.
As to `C=C1c2c(C)nn(-c3ccccc3)c2N(C)C23C[C@@H]1C1(C)c4c(C)nn(-c5ccccc5)c4N(C)C(C)(C[C@H]12)C3` (some centres undefined), the GI50 is 2900 nM and the TGI was determined as 27900 nM.
Regarding `CC([C@H]1CCC2C3CCC4C(=O)C(NC=O)=CC[C@]4(C)C3CC[C@@]21C)N(C)C` (some centres undefined), the GI50 was 1900 nM and the TGI came out at 6260 nM.
As to `N=C(N)c1ccc(-c2ccc(-c3ccco3)o2)cc1`, the GI50 is 1390 nM and the TGI turned out to be 3790 nM.
